Publication PMC5363571 (Oncotarget, 2016)
Counter-ions that a name gives are not always drawn.

Key:
USP7 [1] = target: T1, USP7 (Homo sapiens, UniProt Q93009); test: gel-based GST-UBA52 cleavage assay and Ub-AMC assay with USP7; supported by CETSA, DARTS and HA-Ub-VS competition in HO8910 lysate; format: biochemical
USP2 = USP2 (Homo sapiens, UniProt O75604); test: in vitro deubiquitinase activity assay (Supplementary Figure S1); format: biochemical
USP7 [2] = target: T1, USP7; test: biochemical; parameters: Ub-AMC hydrolysis by recombinant USP7 (20 nM), 30 min pre-incubation, fluorescence read-out; details: read-out: % Inhibition at 50 μM

T1 sequence (Q93009 whole entry): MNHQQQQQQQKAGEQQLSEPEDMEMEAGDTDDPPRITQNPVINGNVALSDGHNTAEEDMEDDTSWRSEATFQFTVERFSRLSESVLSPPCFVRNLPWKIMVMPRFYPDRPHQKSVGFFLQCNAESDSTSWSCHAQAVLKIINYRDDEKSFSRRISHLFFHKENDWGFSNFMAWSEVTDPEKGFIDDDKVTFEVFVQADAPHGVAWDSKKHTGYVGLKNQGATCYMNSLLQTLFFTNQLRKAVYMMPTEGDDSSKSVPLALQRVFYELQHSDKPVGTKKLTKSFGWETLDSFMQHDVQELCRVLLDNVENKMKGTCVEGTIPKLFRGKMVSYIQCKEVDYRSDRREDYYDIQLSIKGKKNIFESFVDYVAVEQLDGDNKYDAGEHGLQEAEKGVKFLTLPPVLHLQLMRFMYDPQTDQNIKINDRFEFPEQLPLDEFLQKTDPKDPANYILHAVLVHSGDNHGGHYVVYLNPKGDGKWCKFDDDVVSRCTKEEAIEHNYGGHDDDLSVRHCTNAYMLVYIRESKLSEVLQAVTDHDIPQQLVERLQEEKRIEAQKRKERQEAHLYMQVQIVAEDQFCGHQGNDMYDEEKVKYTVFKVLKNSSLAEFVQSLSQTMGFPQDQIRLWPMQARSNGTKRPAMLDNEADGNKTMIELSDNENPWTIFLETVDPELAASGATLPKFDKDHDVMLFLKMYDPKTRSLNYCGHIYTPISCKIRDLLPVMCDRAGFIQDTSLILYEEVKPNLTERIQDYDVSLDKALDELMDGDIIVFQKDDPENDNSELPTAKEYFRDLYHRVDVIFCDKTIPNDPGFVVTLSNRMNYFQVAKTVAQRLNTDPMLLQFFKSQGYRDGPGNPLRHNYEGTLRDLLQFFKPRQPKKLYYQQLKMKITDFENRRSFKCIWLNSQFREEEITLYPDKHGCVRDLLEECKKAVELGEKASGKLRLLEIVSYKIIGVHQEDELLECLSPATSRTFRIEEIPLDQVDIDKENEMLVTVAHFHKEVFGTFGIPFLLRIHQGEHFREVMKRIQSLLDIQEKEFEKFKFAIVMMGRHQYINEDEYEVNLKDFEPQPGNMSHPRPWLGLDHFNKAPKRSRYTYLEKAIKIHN
Sequence of USP2 (O75604 whole entry): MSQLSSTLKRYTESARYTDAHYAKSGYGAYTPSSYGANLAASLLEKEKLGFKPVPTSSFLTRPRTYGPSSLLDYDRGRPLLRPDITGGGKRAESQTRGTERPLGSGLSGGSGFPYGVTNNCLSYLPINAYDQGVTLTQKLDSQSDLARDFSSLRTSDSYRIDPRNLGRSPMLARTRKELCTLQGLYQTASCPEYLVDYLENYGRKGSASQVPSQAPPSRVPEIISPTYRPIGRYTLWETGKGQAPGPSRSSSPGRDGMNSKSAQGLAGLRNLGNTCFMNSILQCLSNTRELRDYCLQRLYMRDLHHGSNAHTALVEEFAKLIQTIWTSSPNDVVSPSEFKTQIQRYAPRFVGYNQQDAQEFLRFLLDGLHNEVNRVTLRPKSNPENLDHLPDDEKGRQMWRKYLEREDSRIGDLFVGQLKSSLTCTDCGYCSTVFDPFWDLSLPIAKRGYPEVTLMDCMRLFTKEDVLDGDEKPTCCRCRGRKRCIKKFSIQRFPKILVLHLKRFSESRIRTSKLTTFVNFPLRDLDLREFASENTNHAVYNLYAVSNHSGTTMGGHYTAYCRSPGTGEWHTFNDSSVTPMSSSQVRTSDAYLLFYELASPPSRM

SMILES	IC50 (USP7 [1]) [µM]	IC50 (USP2) [µM]	inhibition at 50 µM (USP7 [2]) [%]
COC(=O)[C@]12CCC(C)(C)C[C@H]1[C@H]1C(=O)C=C3[C@@]4(C)C=C(C#N)C(=O)C(C)(C)[C@@H]4CC[C@@]3(C)[C@]1(C)CC2 [CDDO-Me]	14.1	22.3	91.5
C=C(C)[C@@H]1CC[C@]2(C(=O)O)CC[C@]3(C)[C@H](CC[C@@H]4[C@@]5(C)CC[C@H](O)C(C)(C)[C@@H]5CC[C@]43C)[C@@H]12 [Betulinic acid]			25.8
CNC(=C[N+](=O)[O-])NCCSCc1ccc(CN(C)C)o1 [Ranitidine HCl]			< 5
O=C(O)COCCN1CCN(C(c2ccccc2)c2ccc(Cl)cc2)CC1 (stereo not drawn) [Cetirizine 2HCl]			< 5
C[C@H]1COc2c(N3CCN(C)CC3)c(F)cc3c(=O)c(C(=O)O)cn1c23 [Levofloxacin HCl]			< 5
CC(=O)[C@H]1CC[C@H]2[C@@H]3CC=C4C[C@@H](O)CC[C@]4(C)[C@H]3CC[C@]12C [Pregnenolone]			< 5
C[C@H]1[C@H](C)CC[C@]2(C(=O)O)CC[C@]3(C)C(=CC[C@@H]4[C@@]5(C)CC[C@H](O)C(C)(C)[C@@H]5CC[C@]43C)[C@H]12 [Uosolic acid]			75.2
Clc1ccc2c(c1)C(N1CCNCC1)=Nc1ccccc1O2 [Amoxapine]			16.8
CCCNCC(O)COc1ccccc1C(=O)CCc1ccccc1 (stereo not drawn) [Propafenone]			78.2
COc1ccc(C(=O)NCc2cccnc2)cc1C(=O)NCc1cccnc1 [Picotamide]			< 5
CC(=O)O[C@]1(C(C)=O)CC[C@H]2[C@@H]3C[C@H](C)C4=CC(=O)CC[C@]4(C)[C@H]3CC[C@@]21C [Medroxyprogesterone 17-acetate]			< 5
CC(C(=O)O)c1cccc(C(=O)c2ccccc2)c1 (stereo not drawn) [Ketoprofen]			< 5
O=P(O)(O)C(O)(Cn1ccnc1)P(=O)(O)O [Zoledronic acid]			< 5
CCC(C)n1ncn(-c2ccc(N3CCN(c4ccc(OC[C@H]5CO[C@](Cn6cncn6)(c6ccc(Cl)cc6Cl)O5)cc4)CC3)cc2)c1=O (mixture of isomers) [Itraconazole]			< 5
CCOC(=O)[C@H](CCc1ccccc1)N[C@@H](C)C(=O)N1Cc2ccccc2C[C@H]1C(=O)O [Quinapril HCl]			< 5
CC(C)NCC(O)COc1cccc2[nH]ccc12 (stereo not drawn) [Pindolol]			< 5
Cc1nc2c([nH]1)c(=O)n(C)c(=O)n2Cc1ccco1 [Furafylline]			< 5
COc1ccc2c(c1)[C@]13CCCC[C@@H]1[C@H](C2)N(C)CC3 [Dextromethorphan HBr]			41.3
CCN(CC)CCOc1ccc(C(=C(Cl)c2ccccc2)c2ccccc2)cc1 [Clomiphene citrate]			< 5

SMILES	IC50 (USP7 [1]) [µM]	IC50 (USP2) [µM]	inhibition at 50 µM (USP7 [2]) [%]
COc1ccc2c(c1)c(CC(=O)OCC(=O)O)c(C)n2C(=O)c1ccc(Cl)cc1 [Acemetacin]			19.8
O=C(c1ccc(F)cc1)C1CCN(CCn2c(=O)[nH]c3ccccc3c2=O)CC1 [Ketanserin tartrate]			< 5
CCCOc1ccccc1-c1nc2[nH]nnc2c(=O)[nH]1 [Zaprinast]			< 5
CC1(C)[C@@H](O)CC[C@]2(C)[C@H]3C(=O)C=C4[C@@H]5C[C@@](C)(C(=O)O)CC[C@]5(C)CC[C@@]4(C)[C@]3(C)CC[C@@H]12 [Glycyrrhetic acid]			< 5
Nc1ccn([C@@H]2O[C@H](CO)[C@@H](O)C2(F)F)c(=O)n1 [Gemcitabine HCl]			21.5
CCC[C@@H]1C[C@@H](C(=O)N[C@@H]([C@H]2O[C@H](SC)[C@H](O)[C@@H](O)[C@H]2O)[C@H](C)Cl)N(C)C1 [Clindamycin HCl]			< 5
CCCCC[C@H](O)/C=C/[C@H]1[C@H](O)CC(=O)[C@@H]1C/C=C\CCCC(=O)O [Dinoprostone]			6.5
O=C(CCCN1CCC(O)(c2cccc(C(F)(F)F)c2)CC1)c1ccc(F)cc1 [Trifluperidol 2HCl]			< 5
NS(=O)(=O)Cc1noc2ccccc12 [Zonisamide]			< 5
C=C(C)[C@@H]1CC[C@]2(C)CC[C@]3(C)[C@H](CC[C@@H]4[C@@]5(C)CC[C@H](O)C(C)(C)[C@@H]5CC[C@]43C)[C@@H]12 [Lupeol]			< 5
CC[C@@H]1C(=O)OC[C@@H]1Cc1cncn1C [Pilocarpine HCl]			< 5
CC(C)(C)C(=O)C(Oc1ccc(Cl)cc1)n1ccnc1 (stereo not drawn) [Climbazole]			< 5
COC(=O)[C@H](c1ccccc1Cl)N1CCc2sccc2C1 [Clopidogrel sulfate]			< 5
Clc1ccc(COC(Cn2ccnc2)c2ccc(Cl)cc2Cl)c(Cl)c1 (stereo not drawn) [Miconazole]			< 5
CCOC(=O)N1CCC(=C2c3ccc(Cl)cc3CCc3cccnc32)CC1 [Loratadine]			20.4
c1cnc(N2CCN(Cc3ccc4c(c3)OCO4)CC2)nc1 [Piribedil HCl]			< 5
CC(C)NCC(O)c1ccc(N)c(C#N)c1 (stereo not drawn) [Cimaterol]			< 5
CN/C(=N\CCSCc1nc[nH]c1C)NC#N [Cimetidine]			< 5
